Laboratory results published in ChEMBL document CHEMBL1140607, “Pharmacophore mapping of diverse classes of farnesyltransferase inhibitors” (Bioorg Med Chem Lett, 2007).

Assay: Inhibition of FTase

| IC50 | Compound |
| --- | --- |
| 0.15 nM | N#Cc1ccc(Cn2cncc2Cn2ccc3cc(-c4cccc5ccccc45)c(C#N)cc32)cc1 |
| 51 nM | C[n+]1cccc(NC(=O)C2CN(C3c4ccc(Cl)cc4CCc4cc(Br)cnc43)CCN2C(=O)NC2CC2)c1 (configuration not stated) |
| 0.27 nM | CCOc1cccc(-c2cc(C#N)ccc2COCc2cncn2Cc2ccc(C#N)cc2)c1 |
| 1.4 nM | Cn1cncc1C(O)(c1ccc(C#N)cc1)c1ccc2c(c1)n(-c1cccc(Cl)c1)c(=O)n2C (configuration not stated) |
| 0.19 nM | COCc1cccc(-c2cc(C#N)ccc2COC(c2ccc(C#N)cc2)c2cncn2C)c1 (configuration not stated) |
| 1.1 nM | Cn1cncc1C(OCc1ccc(C#N)cc1-c1ccc2c(c1)OC(F)(F)O2)c1ccc(C#N)cc1 (configuration not stated) |
| 160 nM | Cn1cncc1C(OCc1ccc(C#N)cc1)c1ccc(C#N)c(-c2cc3ccccc3s2)c1 (configuration not stated) |
| 40 nM | COc1cccc(-c2cc(N)ccc2COC(c2ccc(C#N)cc2)c2cncn2C)c1 (configuration not stated) |
| 0.49 nM | N#Cc1ccc(Cn2cncc2COCc2ccc(C#N)cc2-c2cccc(OC(F)(F)F)c2)cc1 |
| 96 nM | CS(=O)(=O)Cn1cncc1COCc1ccc(C#N)cc1-c1cccc(Cl)c1 |
| 150 nM | Cn1cncc1C(O)(c1ccc(Cl)cc1)c1ccc2c(c1)n(Cc1cccc(Cl)c1)c(=O)n2C (configuration not stated) |
| 0.96 nM | N#Cc1ccc(COCc2cncn2Cc2ccc(C#N)cc2-c2cccc3ccccc23)cc1 |
| 0.73 nM | CCOc1cccc(-c2cc(C#N)ccc2C#CC(O)(c2ccc(C#N)cc2)c2cncn2C)c1 (configuration not stated) |
| 61 nM | Cc1ccc(CNC(=O)C2CN(C3c4ccc(Cl)cc4CCc4cc(Br)cnc43)CCN2C(=O)NC2CCCCC2)cn1 (configuration not stated) |
| 0.5 nM | CCOc1cccc(-n2c(=O)n(C)c3ccc(C(O)(c4ccc(C#N)cc4)c4cncn4C)cc32)c1 (configuration not stated) |
| 0.88 nM | Cn1cncc1C(OCc1ccc(C#N)cc1NS(=O)(=O)c1cccs1)c1ccc(C#N)cc1 (configuration not stated) |
| 490 nM | O=C(Nc1nncs1)C1CN(C2c3ccc(Cl)cc3CCc3cc(Br)cnc32)CCN1C(=O)NC1CCCCC1 (configuration not stated) |
| 29 nM | Cc1ccccc1-c1cc(C(OCc2cccc(C(F)(F)F)c2)c2cncn2C)ccc1C#N (configuration not stated) |
| 1800 nM | CCCCC(=O)N1CCN(C2c3ccc(Cl)cc3CCc3cc(Br)ccc32)CC1C(=O)NCc1ccc[n+]([O-])c1 (configuration not stated) |
| 0.014 nM | CCOc1cccc(-c2cc(C#N)ccc2CNCc2cncn2Cc2ccc(C#N)cc2)c1 |
| 1000 nM | Cn1c(=O)cc(-c2cccc(Cl)c2)c2cc(Cn3cncc3Cn3ccc(C(=O)N4CCOCC4)c3)ccc21 |
| 0.32 nM | N#Cc1ccc(OCc2cn(Cc3ccc(C#N)c(-c4ccc5ccccc5c4)c3)cn2)cc1 |
